According to the supplement of paper PMC4862054:

Tests used:
Assay in all cases: normalised viability (% of control), CellTiter-Blue; higher = more viable cells (about 100 = DMSO control)
Conditions in all cases: incubation time: 72 h
[1] = test system: DU-4475
Outline: (§1)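 The reported figure is normalised viability at a single listed concentration of the series. Breast cancer cell lines (20 µl suspension) went onto 384-well plates holding compound in 5 µl medium for 72 h. CellTiter-Blue (2.5 µl, 2 h, 37 °C) was read by fluorescence at 560/590 nm, and each plate was scaled to vehicle at 100 and a positive kill control at 0.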

[2] = test system: Hs578T
Outline: as §1

[3] = test system: HCC1937
Outline: as §1

[4] = test system: HCC1599
Outline: as §1

[5] = test system: MDA-MB-468
Outline: as §1

[6] = test system: HDQ-P1
Outline: as §1

[7] = test system: BT-549
Outline: as §1

[8] = test system: MFM-223
Outline: as §1

[9] = test system: BT-474
Outline: as §1

[10] = test system: CAL-148
Outline: as §1

[11] = test system: CAL-85-1
Outline: as §1

[12] = test system: SK-BR-3
Outline: as §1

[13] = test system: MDA-MB-436
Outline: as §1

[14] = test system: MDA-MB-453
Outline: as §1

[15] = test system: CAL-51
Outline: as §1

[16] = test system: HCC1143
Outline: as §1

[17] = test system: MDA-MB-231
Outline: as §1

[18] = test system: CAL-120
Outline: as §1

Cc1cccc(-c2nn3c(c2-c2ccnc4ccc(C(N)=O)cc24)CCC3)n1
normalised viability [%]
Conditions | 0.3 nM | 1 nM | 3 nM | 10 nM | 100 nM | 1000 nM
[1] | 113 | – | 100 | 115 | – | –
[2] | – | 106 | – | – | 112 | 89.9
[3] | – | 157 | – | – | 108 | 126
[4] | – | 86.8 | – | – | 91.6 | 96.8
[5] | – | 106 | – | – | 120 | 105
[6] | 120 | – | 117 | 134 | – | –
[7] | – | 93.8 | – | – | 98.3 | 109
[8] | – | 96.6 | – | – | 96.5 | 93.6
[9] | – | 120 | – | – | 110 | 130
[10] | 93.4 | – | 95.2 | 92.9 | – | –
[11] | 99.3 | – | 94.2 | 101 | – | –
[12] | – | 116 | – | – | 101 | 103
[13] | – | 120 | – | – | 96.9 | 128
[14] | 122 | – | 108 | 97.2 | – | –
[15] | 100 | – | 93.8 | 96.5 | – | –
[16] | – | 98.3 | – | – | 91 | 91.1
[17] | – | 109 | – | – | 128 | 111
[18] | – | 97.9 | – | – | 92.8 | 106

Cn1cc(CNCC2CCN(c3ncc(C(=O)NO)cn3)CC2)c2ccccc21
normalised viability [%]
Conditions | 0.3 nM | 1 nM | 3 nM | 10 nM | 100 nM | 1000 nM
[1] | 88.5 | – | 93.7 | 60 | – | –
[2] | – | 128 | – | – | 39.3 | 5.1
[3] | – | 69.2 | – | – | 31.8 | 14.7
[4] | – | 101 | – | – | 28 | 14.5
[5] | – | 107 | – | – | 38 | 14.5
[6] | 104 | – | 88.9 | 88.6 | – | –
[7] | – | 78 | – | – | 75.1 | 12
[8] | – | 88.9 | – | – | 28.5 | 8.06
[9] | – | 97.9 | – | – | 8.46 | 7.06
[10] | 95.6 | – | 89.2 | 53.9 | – | –
[11] | 90 | – | 79.9 | 65.1 | – | –
[12] | – | 86.2 | – | – | 8.01 | 2.99
[13] | – | 94.5 | – | – | 80.6 | 17.7
[14] | 113 | – | 63.6 | 25.8 | – | –
[15] | 116 | – | 115 | 97.2 | – | –
[16] | – | 83 | – | – | 23.6 | 11.1
[17] | – | 103 | – | – | 17.7 | 5.23
[18] | – | 88.7 | – | – | 12.5 | 3.89

O=C(NC[C@H](O)CO)c1ccncc1Nc1ccc(I)cc1F
normalised viability [%]
Conditions | 3 nM | 10 nM | 30 nM | 100 nM | 1000 nM | 10000 nM
[1] | 79.2 | – | 16.4 | 1.76 | – | –
[2] | – | 114 | – | – | 95.3 | 67.4
[3] | – | 94.6 | – | – | 87.8 | 79.8
[4] | – | 108 | – | – | 78 | 67.2
[5] | – | 97.7 | – | – | 85.7 | 60.7
[6] | 107 | – | 97.8 | 91.9 | – | –
[7] | – | 93.2 | – | – | 88.6 | 88
[8] | – | 90.2 | – | – | 86 | 52.2
[9] | – | 107 | – | – | 104 | 114
[10] | 86 | – | 86.4 | 82.7 | – | –
[11] | 79.1 | – | 83.4 | 85.7 | – | –
[12] | – | 98.4 | – | – | 102 | 55.5
[13] | – | 92.2 | – | – | 85.6 | 79.2
[14] | 99.6 | – | 89.2 | 90.9 | – | –
[15] | 111 | – | 88.5 | 85.8 | – | –
[16] | – | 69.5 | – | – | 55.4 | 50.1
[17] | – | 75.5 | – | – | 31.7 | 31.4
[18] | – | 85.1 | – | – | 55.7 | 43.1

Nc1nc(=O)c2c([nH]1)NCC(CNc1ccc(C(=O)N[C@@H](CCC(=O)O)C(=O)O)cc1)N2C=O (mixture of isomers) [Folinic acid]
normalised viability [%]
Conditions | 0.297 nM | 0.99 nM | 2.97 nM | 9.9 nM | 99 nM | 990 nM
[1] | 110 | – | 85 | 109 | – | –
[2] | – | 92.2 | – | – | 102 | 96.3
[3] | – | 121 | – | – | 87.8 | 107
[4] | – | 111 | – | – | 106 | 118
[5] | – | 115 | – | – | 107 | 115
[6] | 122 | – | 115 | 92.2 | – | –
[7] | – | 100 | – | – | 105 | 102
[8] | – | 106 | – | – | 107 | 94.4
[9] | – | 106 | – | – | 99.6 | 116
[10] | 92.2 | – | 88.9 | 96.6 | – | –
[11] | 96.2 | – | 93.9 | 99.8 | – | –
[12] | – | 95.3 | – | – | 98.6 | 116
[13] | – | 123 | – | – | 112 | 123
[14] | 110 | – | 109 | 103 | – | –
[15] | 94 | – | 92 | 97.6 | – | –
[16] | – | 92.7 | – | – | 95.8 | 92
[17] | – | 100 | – | – | 123 | 118
[18] | – | 105 | – | – | 110 | 108

CS(=O)(=O)N1CCN(Cc2cc3nc(-c4cccc5[nH]ncc45)nc(N4CCOCC4)c3s2)CC1 [GDC-0941]
Conditions | normalised viability [%]
[1], 3 nM | 107
[1], 30 nM | 98.8
[1], 100 nM | 95.5
[2], 10 nM | 112
[2], 1000 nM | 62.3
[2], 10000 nM | 19.6
[3], 10 nM | 114
[3], 1000 nM | 60.8
[3], 10000 nM | 25.5
[4], 10 nM | 96.8
[4], 1000 nM | 55
[4], 10000 nM | 28
[5], 10 nM | 108
[5], 1000 nM | 62.8
[5], 10000 nM | 17
[6], 3 nM | 93.6
[6], 30 nM | 93.8
[6], 100 nM | 69.3
[7], 10 nM | 85.6
[7], 1000 nM | 60.9
[7], 10000 nM | 14.1
[8], 10 nM | 95.7
[8], 1000 nM | 43.5
[8], 10000 nM | 13.1
[9], 10 nM | 109
[9], 1000 nM | 41.3
[9], 10000 nM | 11
[10], 3 nM | 82.4
[10], 30 nM | 85.8
[10], 100 nM | 83.2
[11], 30 nM | 77.7
[11], 100 nM | 83.5
[12], 10 nM | 92.3
[12], 1000 nM | 24.1
[12], 10000 nM | 8.8
[13], 10 nM | 97.7
[13], 1000 nM | 68.1
[13], 10000 nM | 22.9
[14], 3 nM | 109
[14], 30 nM | 85.1
[14], 100 nM | 76.2
[15], 3 nM | 117
[15], 30 nM | 106
[15], 100 nM | 89.4
[16], 10 nM | 73.2
[16], 1000 nM | 52.1
[16], 10000 nM | 21.2
[17], 10 nM | 90.8
[17], 1000 nM | 63.4
[17], 10000 nM | 35.2
[18], 10 nM | 89.6
[18], 1000 nM | 53.7
[18], 10000 nM | 20.8
